Measurements reported in PubChem BioAssay (NCI).
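GI50 is the concentration that inhibits growth by half. At the TGI there is no net growth.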

Columns and labels:
Assay in all cases: growth of human tumour cells (NCI), 384-well format
NCI-H226 lung = system: NCI-H226 lung
M14 melanoma = system: M14 melanoma
NCI-H322M lung = system: NCI-H322M lung
HT29 colon = system: HT29 colon
SF-539 CNS = system: SF-539 CNS
NCI-H23 lung = system: NCI-H23 lung
T-47D breast = system: T-47D breast
U251 glioblastoma = system: U251 glioblastoma
LOX IMVI melanoma = system: LOX IMVI melanoma
786-0 renal = system: 786-0 renal
SN12C renal = system: SN12C renal
HS 578T breast = system: HS 578T breast
MOLT-4 leukemia = system: MOLT-4 leukemia
HL-60(TB) leukemia = system: HL-60(TB) leukemia
CCRF-CEM leukemia = system: CCRF-CEM leukemia
K-562 leukemia = system: K-562 leukemia
IGROV1 ovarian = system: IGROV1 ovarian
HOP-62 NSCLC = system: HOP-62 NSCLC
EKVX NSCLC = system: EKVX NSCLC
SNB-75 CNS = system: SNB-75 CNS
OVCAR-8 ovarian = system: OVCAR-8 ovarian
DU-145 prostate = system: DU-145 prostate
MDA-MB-231 breast = system: MDA-MB-231 breast
NCI/ADR-RES ovarian = system: NCI/ADR-RES ovarian
SK-MEL-2 melanoma = system: SK-MEL-2 melanoma
BT-549 breast = system: BT-549 breast
RXF 393 renal = system: RXF 393 renal
SF-268 CNS = system: SF-268 CNS
HCT-15 colon = system: HCT-15 colon
OVCAR-4 ovarian = system: OVCAR-4 ovarian
ACHN renal = system: ACHN renal
SF-295 CNS = system: SF-295 CNS
NCI-H522 lung = system: NCI-H522 lung
PC-3 prostate = system: PC-3 prostate
HCT-116 colon = system: HCT-116 colon
HCC-2998 colon = system: HCC-2998 colon
RPMI-8226 leukemia = system: RPMI-8226 leukemia
UACC-62 melanoma = system: UACC-62 melanoma
MDA-MB-435 melanoma = system: MDA-MB-435 melanoma
SNB-19 CNS = system: SNB-19 CNS
CAKI-1 renal = system: CAKI-1 renal
KM12 colon = system: KM12 colon
COLO 205 colon = system: COLO 205 colon
MDA-MB-468 breast = system: MDA-MB-468 breast
TK-10 renal = system: TK-10 renal
SW-620 colon = system: SW-620 colon
A549 NSCLC = system: A549 NSCLC

COc1cc2nc(C)nc(N[C@H](C)c3cc(N)cc(C(F)(F)F)c3)c2cc1O[C@H]1CCOC1
GI50 (NCI-H226 lung): 3.24 µM
TGI (NCI-H226 lung): 19.1 µM
GI50 (M14 melanoma): 11.7 µM
TGI (M14 melanoma): 23.9 µM
GI50 (NCI-H322M lung): 11.1 µM
TGI (NCI-H322M lung): 23.1 µM
GI50 (HT29 colon): 4.69 µM
TGI (HT29 colon): 16.2 µM
GI50 (SF-539 CNS): 12.7 µM
TGI (SF-539 CNS): 25.3 µM
GI50 (NCI-H23 lung): 3.42 µM
TGI (NCI-H23 lung): 17.7 µM
GI50 (T-47D breast): 10.2 µM
TGI (T-47D breast): 21.9 µM
GI50 (U251 glioblastoma): 10.9 µM
TGI (U251 glioblastoma): 22.8 µM
GI50 (LOX IMVI melanoma): 13.4 µM
TGI (LOX IMVI melanoma): 26.3 µM
GI50 ([…]-0 renal): 11.8 µM
TGI (786-0 renal): 24.2 µM
GI50 (SN12C renal): 2860 nM
TGI (SN12C renal): 18.2 µM
GI50 (HS 578T breast): 2100 nM
TGI (HS 578T breast): 15.9 µM
GI50 (MOLT-4 leukemia): 4.45 µM
TGI (MOLT-4 leukemia): 17.4 µM
GI50 (HL-60(TB) leukemia): 3.91 µM
TGI (HL-60(TB) leukemia): 14.4 µM
GI50 (CCRF-CEM leukemia): 9.35 µM
TGI (CCRF-CEM leukemia): 21.3 µM
GI50 (K-562 leukemia): 36.4 nM
TGI (K-562 leukemia): 12.5 µM
GI50 (IGROV1 ovarian): 8.69 µM
TGI (IGROV1 ovarian): 21.5 µM
GI50 (HOP-62 NSCLC): 6.98 µM
TGI (HOP-62 NSCLC): 20.1 µM
GI50 (EKVX NSCLC): 2730 nM
TGI (EKVX NSCLC): 16.2 µM
GI50 (SNB-75 CNS): 6.26 µM
TGI (SNB-75 CNS): 20 µM
GI50 (OVCAR-8 ovarian): 12.7 µM
TGI (OVCAR-8 ovarian): 25.3 µM
GI50 (DU-145 prostate): 14.6 µM
TGI (DU-145 prostate): 27.9 µM
GI50 (MDA-MB-231 breast): 13.5 µM
TGI (MDA-MB-231 breast): 26.6 µM
GI50 (NCI/ADR-RES ovarian): 12.5 µM
TGI (NCI/ADR-RES ovarian): 25.4 µM
GI50 (SK-MEL-2 melanoma): 11.1 µM
TGI (SK-MEL-2 melanoma): 23.1 µM
GI50 (BT-549 breast): 8.77 µM
TGI (BT-549 breast): 21.2 µM
GI50 (RXF 393 renal): 2430 nM
TGI (RXF 393 renal): 12.1 µM
GI50 (SF-268 CNS): 13.5 µM
TGI (SF-268 CNS): 26.3 µM
GI50 (HCT-15 colon): 11.6 µM
TGI (HCT-15 colon): 23.9 µM
GI50 (OVCAR-4 ovarian): 8.7 µM
TGI (OVCAR-4 ovarian): 21.4 µM
GI50 (ACHN renal): 13.8 µM
TGI (ACHN renal): 26.7 µM
GI50 (SF-295 CNS): 12.8 µM
TGI (SF-295 CNS): 25.4 µM
GI50 (NCI-H522 lung): 2340 nM
TGI (NCI-H522 lung): 19.4 µM
GI50 (PC-3 prostate): 11 µM
TGI (PC-3 prostate): 23.1 µM
GI50 (HCT-116 colon): 10.5 µM
TGI (HCT-116 colon): 22.4 µM
GI50 (HCC-2998 colon): 3.6 µM
TGI (HCC-2998 colon): 15.9 µM
GI50 (RPMI-8226 leukemia): 2130 nM
TGI (RPMI-8226 leukemia): 13.2 µM
GI50 (UACC-62 melanoma): 13.4 µM
TGI (UACC-62 melanoma): 26.2 µM
GI50 (MDA-MB-435 melanoma): 14.5 µM
TGI (MDA-MB-435 melanoma): 27.6 µM
GI50 (SNB-19 CNS): 12.5 µM
TGI (SNB-19 CNS): 25.1 µM
GI50 (CAKI-1 renal): 1970 nM
TGI (CAKI-1 renal): 17 µM
GI50 (KM12 colon): 980 nM
TGI (KM12 colon): 17.1 µM
GI50 (COLO 205 colon): 14 µM
TGI (COLO 205 colon): 27.1 µM
GI50 (MDA-MB-468 breast): 1350 nM
TGI (MDA-MB-468 breast): 11.3 µM
GI50 (TK-10 renal): 10.9 µM
TGI (TK-10 renal): 22.9 µM
GI50 (SW-620 colon): 14.1 µM
TGI (SW-620 colon): 27.2 µM
GI50 (A549 NSCLC): 14.5 µM
TGI (A549 NSCLC): 27.8 µM
